Measured values: PubChem BioAssay AID248 (DTP/NCI, 2004)
Where “and” joins values, the source holds several entries; their conditions need not be identical. Equal entries are not always repeated. Toxic doses and inconclusive results are not listed. No stated cut-off is given here; in the data, active means T/C of 150% or more; inactive means T/C below 125%.

Test system: L1210 leukemia ip in BDF1 mice, survival T/C
Assay: NCI In Vivo Anticancer Drug Screen. Data for tumor model L1210 Leukemia (intraperitoneal) in B6D2F1 (BDF1) mice
Details: endpoint: mean survival time, higher = longer survival
Summary of the method: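 Read-out is survival time, reported as the treated-group measurement over the vehicle-control measurement.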

[1] = dose: 100.0 mg/kg/injection, schedule: Q04DX003 (ip), vehicle: saline with Tween-80
[2] = dose: 100.0 mg/kg/injection, schedule: Q04DX003 (ip), vehicle: saline
[3] = dose: 200.0 mg/kg/injection, schedule: Q04DX003 (ip), vehicle: saline
[4] = dose: 100.0 mg/kg/injection, schedule: Q01DX009 (ip), vehicle: saline
[5] = dose: 400.0 mg/kg/injection, schedule: Q04DX003 (ip), vehicle: saline
[6] = dose: 100.0 mg/kg/injection, schedule: Q04DX003 (ip), vehicle: Klucel (hydroxypropylcellulose) (HPC)
[7] = dose: 200.0 mg/kg/injection, schedule: Q04DX003 (ip), vehicle: Klucel (hydroxypropylcellulose) (HPC)
[8] = dose: 400.0 mg/kg/injection, schedule: Q04DX003 (ip), vehicle: Klucel (hydroxypropylcellulose) (HPC)
[9] = dose: 100.0 mg/kg/injection, schedule: Q01DX009 (ip), vehicle: saline with Tween-80
[10] = dose: 200.0 mg/kg/injection, schedule: Q01DX009 (ip), vehicle: saline with Tween-80
[11] = dose: 400.0 mg/kg/injection, schedule: Q01DX009 (ip), vehicle: saline with Tween-80
[12] = dose: 50.0 mg/kg/injection, schedule: Q01DX009 (ip), vehicle: Klucel (hydroxypropylcellulose) (HPC)
[13] = dose: 100.0 mg/kg/injection, schedule: Q01DX009 (ip), vehicle: Klucel (hydroxypropylcellulose) (HPC)
[14] = dose: 200.0 mg/kg/injection, schedule: Q01DX009 (ip), vehicle: Klucel (hydroxypropylcellulose) (HPC)
[15] = dose: 400.0 mg/kg/injection, schedule: Q01DX009 (ip), vehicle: Klucel (hydroxypropylcellulose) (HPC)

Measured: T/C

COc1ccc(C(=O)C=C(C(F)(F)F)C(F)(F)F)cc1
inactive: dose: 25.0 mg/kg/injection, schedule: Q04DX003 (ip), vehicle: saline with Tween-80 93 % of control | dose: 50.0 mg/kg/injection, schedule: Q04DX003 (ip), vehicle: saline with Tween-80 102 % of control | [1] 100 % of control and 102 % of control

CC(=O)N1CCCC(=O)CCCCCCC1=O
inactive: dose: 50.0 mg/kg/injection, schedule: Q04DX003 (ip), vehicle: saline 95 % of control | [2] 103 % of control | [3] 88 % of control

CN1CCCC(C)(CN2c3ccccc3Sc3ccccc32)C1 (configuration not stated)
inactive: [2] 111 % of control | [3] 105 % of control

NCCCCCCNC(=O)CCCCC(=O)NCCCCCCN
inactive: dose: 8.0 mg/kg/injection, schedule: Q01DX Z (ip), vehicle: water 88 % of control | dose: 16.0 mg/kg/injection, schedule: Q01DX Z (ip), vehicle: water 86 % of control | dose: 32.0 mg/kg/injection, schedule: Q01DX Z (ip), vehicle: water 89 % of control | dose: 64.0 mg/kg/injection, schedule: Q01DX Z (ip), vehicle: saline 90 % of control | dose: 64.0 mg/kg/injection, schedule: Q01DX Z (ip), vehicle: water 91 % of control

CN(C)/C=C(/C#N)C(=O)N1CCCC1
inactive: [4] 106 % of control | [2] 101 % of control | dose: 200.0 mg/kg/injection, schedule: Q01DX009 (ip), vehicle: saline 102 % of control | [3] 101 % of control | dose: 400.0 mg/kg/injection, schedule: Q01DX009 (ip), vehicle: saline 112 % of control | [5] 117 % of control

NC(N)=N/N=C\c1ccc(/C=N/N=C(N)N)cc1
inactive: dose: 60.0 mg/kg/injection, schedule: Q01DX Z (oral), vehicle: saline 103 % of control | dose: 120.0 mg/kg/injection, schedule: Q01DX Z (oral), vehicle: saline 108 % of control | dose: 240.0 mg/kg/injection, schedule: Q01DX Z (oral), vehicle: saline 101 % of control | dose: 480.0 mg/kg/injection, schedule: Q01DX Z (oral), vehicle: saline 108 % of control

CCOC(=O)CCc1c(C(=O)OCC)[nH]c(C)c1CC(=O)OC
inactive: [6] 98 % of control | [7] 101 % of control | [8] 101 % of control

C[C@@H]1CC2=CC(=O)CC[C@]2(C)[C@H]2CC[C@]3(C)[C@@H](O)CC[C@H]3[C@H]12
inactive: [9] 92 % of control | [10] 112 % of control | [11] 100 % of control

CCOC(=O)C(C(=O)OCC)C1c2ccccc2C(=O)N(CCN(C)C)c2ccccc21 (configuration not stated)
inactive: dose: 25.0 mg/kg/injection, schedule: Q01DX009 (ip), vehicle: saline 96 % of control | dose: 50.0 mg/kg/injection, schedule: Q01DX009 (ip), vehicle: saline 99 % of control | [4] 98 % of control

CCOC(CN=Cc1cccc2ccccc12)OCC
inactive: [1] 95 % of control | dose: 200.0 mg/kg/injection, schedule: Q04DX003 (ip), vehicle: saline with Tween-80 93 % of control | dose: 400.0 mg/kg/injection, schedule: Q04DX003 (ip), vehicle: saline with Tween-80 95 % of control

CCCC1(C)COB(c2ccc(C)cc2)OC1
inactive: dose: 25.0 mg/kg/injection, schedule: Q01DX009 (ip), vehicle: Klucel (hydroxypropylcellulose) (HPC) 102 % of control | [12] 105 % of control | dose: 50.0 mg/kg/injection, schedule: Q04DX003 (ip), vehicle: Klucel (hydroxypropylcellulose) (HPC) 92 % of control | [13] 114 % of control | [6] 101 % of control | [14] 122 % of control | [7] 92 % of control | [15] 88 % of control | [8] 95 % of control

CN(CC1CCCCC1=O)CC1CCCCC1=O (configuration not stated)
inactive: dose: 100.0 mg/kg/injection, schedule: Q01DX001 (ip), vehicle: steriod suspending solution 97 % of control | dose: 200.0 mg/kg/injection, schedule: Q01DX001 (ip), vehicle: steriod suspending solution 104 % of control | dose: 400.0 mg/kg/injection, schedule: Q01DX001 (ip), vehicle: steriod suspending solution 106 % of control

c1ccc(N=Nc2ccc(NC3=NCCO3)cc2)cc1
inactive: [6] 95 % of control | [7] 98 % of control

CC1(OC(=O)c2ccc([N+](=O)[O-])cc2)CC2CCC1C2 (configuration not stated)
inactive: dose: 100.0 mg/kg/injection, schedule: Q01DX001 (ip), vehicle: saline with Tween-80 98 % of control | dose: 200.0 mg/kg/injection, schedule: Q01DX001 (ip), vehicle: saline with Tween-80 91 % of control | dose: 400.0 mg/kg/injection, schedule: Q01DX001 (ip), vehicle: saline with Tween-80 104 % of control

CCOC(=O)/C(C#N)=C(\CC)c1ccccc1
inactive: [13] 98 % of control | [14] 101 % of control

Cc1cc(Cc2cc(C)c(O)c(C(C)(C)C)c2)cc(C(C)(C)C)c1O
inactive: dose: 50.0 mg/kg/injection, schedule: Q04DX002 (ip), vehicle: other 93 % of control | dose: 100.0 mg/kg/injection, schedule: Q04DX002 (ip), vehicle: other 87 % of control | dose: 200.0 mg/kg/injection, schedule: Q04DX002 (ip), vehicle: other 90 % of control

O=C(c1ccccc1)c1nnc(C(=O)c2ccccc2)nn1
inactive: [6] 102 % of control | [7] 100 % of control | [8] 93 % of control

CCC(OBr)C1COC(Nc2ccccc2)O1 (configuration not stated)
inactive: [13] 96 % of control | [2] 95 % of control | [14] 96 % of control | [3] 105 % of control | [15] 103 % of control | [5] 101 % of control

BrC(Br)c1cnc2ccccc2n1
inactive: [12] 107 % of control | [13] 92 % of control | [14] 101 % of control

O=C(COCC(=O)N/N=C/c1cccc([N+](=O)[O-])c1)N/N=C/c1cccc([N+](=O)[O-])c1
inactive: [13] 92 % of control | [14] 95 % of control | [15] 106 % of control

CC1N=C(c2ccc(N)cc2)OC1C (configuration not stated)
inactive: dose: 100.0 mg/kg/injection, schedule: Q01DX001 (ip), vehicle: Klucel (hydroxypropylcellulose) (HPC) 102 % of control | dose: 200.0 mg/kg/injection, schedule: Q01DX001 (ip), vehicle: Klucel (hydroxypropylcellulose) (HPC) 98 % of control | dose: 400.0 mg/kg/injection, schedule: Q01DX001 (ip), vehicle: Klucel (hydroxypropylcellulose) (HPC) 100 % of control

CCOc1ccc(/C=C2\N=C(c3cc(OC)c(OC)c(OC)c3)OC2=O)cc1
inactive: [9] 102 % of control | dose: 100.0 mg/kg/injection, schedule: Q04DX002 (ip), vehicle: Klucel (hydroxypropylcellulose) (HPC) 96 % of control | [10] 123 % of control | dose: 200.0 mg/kg/injection, schedule: Q04DX002 (ip), vehicle: Klucel (hydroxypropylcellulose) (HPC) 86 % of control | [11] 108 % of control | dose: 400.0 mg/kg/injection, schedule: Q04DX002 (ip), vehicle: Klucel (hydroxypropylcellulose) (HPC) 96 % of control

CC12CCCCCCC1O2 (configuration not stated)
inactive: dose: 75.0 mg/kg/injection, schedule: Q01DX001 (ip), vehicle: other 100 % of control | dose: 150.0 mg/kg/injection, schedule: Q01DX001 (ip), vehicle: other 89 % of control | dose: 300.0 mg/kg/injection, schedule: Q01DX001 (ip), vehicle: other 95 % of control

O=S(=O)(N=C1C=CC(=NS(=O)(=O)c2ccccc2)C=C1)c1ccccc1
inactive: dose: 100.0 mg/kg/injection, schedule: Q01DX009 (ip), vehicle: gum acacia 98 % of control | dose: 100.0 mg/kg/injection, schedule: Q04DX003 (ip), vehicle: gum acacia 98 % of control | dose: 200.0 mg/kg/injection, schedule: Q01DX009 (ip), vehicle: gum acacia 97 % of control | dose: 200.0 mg/kg/injection, schedule: Q04DX003 (ip), vehicle: gum acacia 98 % of control | dose: 400.0 mg/kg/injection, schedule: Q04DX003 (ip), vehicle: gum acacia 95 % of control

C1=CC2CC1C1CC21 (configuration not stated)
inactive: dose: 75.0 mg/kg/injection, schedule: Q01DX001 (ip), vehicle: saline 100 % of control | dose: 150.0 mg/kg/injection, schedule: Q01DX001 (ip), vehicle: saline 96 % of control | dose: 300.0 mg/kg/injection, schedule: Q01DX001 (ip), vehicle: saline 96 % of control
